Data: US20250230172A1 (Vanqua Bio, Inc., priority 2021, published 2025)

Biological target: T1, GCase (Homo sapiens, UniProt P04062)
T1 construct: endogenous in cells; host or cells: HeLa cells
T1 sequence (P04062 40-536): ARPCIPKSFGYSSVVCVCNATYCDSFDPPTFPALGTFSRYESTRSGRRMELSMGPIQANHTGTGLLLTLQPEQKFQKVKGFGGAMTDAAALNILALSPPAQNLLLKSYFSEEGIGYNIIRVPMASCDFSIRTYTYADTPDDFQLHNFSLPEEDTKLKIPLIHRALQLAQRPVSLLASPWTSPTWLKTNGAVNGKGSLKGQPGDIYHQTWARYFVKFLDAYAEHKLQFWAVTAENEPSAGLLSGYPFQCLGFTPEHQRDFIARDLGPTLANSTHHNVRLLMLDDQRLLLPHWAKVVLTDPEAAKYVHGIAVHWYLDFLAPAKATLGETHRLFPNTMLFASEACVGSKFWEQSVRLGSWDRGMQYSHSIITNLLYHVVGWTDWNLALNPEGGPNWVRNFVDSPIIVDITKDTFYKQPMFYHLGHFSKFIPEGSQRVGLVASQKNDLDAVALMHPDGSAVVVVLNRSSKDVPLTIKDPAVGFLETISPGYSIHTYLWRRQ
Experiment: live cell PFB assay in HELA cells for activation of GCase
Format: cell-based
Experimental: Exemplary compounds were evaluated for activation of GCase in a live cell PFB assay in HELA cells (essentially as described in Ysselstein et al., “LRRK2 kinase activity regulates lysosomal glucocerebrosidase in neurons derived from Parkinson's disease patients” Nature Communications (2019) 10:5570). […] EC50 ranges: A: <10 μM; B: >10-50 μM; C: >50-100 μM; D: >100 μM.

Row | Compound | EC50
1 | FC(F)Cn1ncc2ncc(N[C@H]3C[C@@H]4CN(c5cc(C(F)(F)F)cnn5)C[C@@H]4C3)nc21 [Compound 83, 1-(2,2-difluoroethyl)-N-((3aR,5s,6aS)-2-(5-(trifluoromethyl)pyridazin-3-yl)octahydrocyclopenta[c]pyrrol-5-yl)-1H-pyrazolo[3,4-b]pyrazin-6-amine] | 10 to 50 µM
2 | FC(F)Cn1ncc2ncc(N[C@H]3C[C@@H]4CN(c5nnccc5C(F)(F)F)C[C@@H]4C3)nc21 [Compound 84, 1-(2,2-difluoroethyl)-N-((3aR,5s,6aS)-2-(4-(trifluoromethyl)pyridazin-3-yl)octahydrocyclopenta[c]pyrrol-5-yl)-1H-pyrazolo[3,4-b]pyrazin-6-amine] | > 100 µM
3 | FC(F)Cn1ncc2ncc(N[C@H]3C[C@@H]4CN(c5nccc(C(F)(F)F)n5)C[C@@H]4C3)nc21 [Compound 85, 1-(2,2-difluoroethyl)-N-((3aR,5s,6aS)-2-(4-(trifluoromethyl)pyrimidin-2-yl)octahydrocyclopenta[c]pyrrol-5-yl)-1H-pyrazolo[3,4-b]pyrazin-6-amine] | < 10 µM
4 | FC(F)Cn1ncc2ncc(N[C@H]3C[C@@H]4CN(c5ncc(C(F)(F)F)cn5)C[C@@H]4C3)nc21 [Compound 86, 1-(2,2-difluoroethyl)-N-((3aR,5s,6aS)-2-(5-(trifluoromethyl)pyrimidin-2-yl)octahydrocyclopenta[c]pyrrol-5-yl)-1H-pyrazolo[3,4-b]pyrazin-6-amine] | 10 to 50 µM
5 | FC(F)Cn1ncc2ncc(N[C@H]3C[C@@H]4CN(c5cncnc5C(F)(F)F)C[C@@H]4C3)nc21 [Compound 89, 1-(2,2-difluoroethyl)-N-((3aR,5s,6aS)-2-(4-(trifluoromethyl)pyrimidin-5-yl)octahydrocyclopenta[c]pyrrol-5-yl)-1H-pyrazolo[3,4-b]pyrazin-6-amine] | < 10 µM
6 | FC(F)Cn1ncc2ncc(N[C@H]3C[C@@H]4CN(c5ncncc5C(F)(F)F)C[C@@H]4C3)nc21 [Compound 91, 1-(2,2-difluoroethyl)-N-((3aR,5s,6aS)-2-(5-(trifluoromethyl)pyrimidin-4-yl)octahydrocyclopenta[c]pyrrol-5-yl)-1H-pyrazolo[3,4-b]pyrazin-6-amine] | < 10 µM

Second part, the compound after the results:

Row | EC50 | Compound
7 | < 10 µM | FC(F)Cn1ncc2ncc(N[C@H]3C[C@@H]4CN(c5nccnc5C(F)(F)F)C[C@@H]4C3)nc21 [Compound 80, 1-(2,2-difluoroethyl)-N-((3aR,5s,6aS)-2-(3-(trifluoromethyl)pyrazin-2-yl)octahydrocyclopenta[c]pyrrol-5-yl)-1H-pyrazolo[3,4-b]pyrazin-6-amine]
8 | 10 to 50 µM | COc1nccnc1N1C[C@H]2C[C@H](Nc3cnc4cnn(CC(F)F)c4n3)C[C@H]2C1 [Compound 81, 1-(2,2-difluoroethyl)-N-((3aR,5s,6aS)-2-(3-methoxypyrazin-2-yl)octahydrocyclopenta[c]pyrrol-5-yl)-1H-pyrazolo[3,4-b]pyrazin-6-amine]
9 | 10 to 50 µM | FC(F)Cn1ncc2ncc(N[C@H]3C[C@@H]4CN(c5ccc(C(F)(F)F)nn5)C[C@@H]4C3)nc21 [Compound 82, 1-(2,2-difluoroethyl)-N-((3aR,5s,6aS)-2-(6-(trifluoromethyl)pyridazin-3-yl)octahydrocyclopenta[c]pyrrol-5-yl)-1H-pyrazolo[3,4-b]pyrazin-6-amine]
10 | < 10 µM | FC(F)Cn1ncc2ncc(N[C@H]3C[C@@H]4CN(c5ccnc(C(F)(F)F)n5)C[C@@H]4C3)nc21 [Compound 87, 1-(2,2-difluoroethyl)-N-((3aR,5s,6aS)-2-(2-(trifluoromethyl)pyrimidin-4-yl)octahydrocyclopenta[c]pyrrol-5-yl)-1H-pyrazolo[3,4-b]pyrazin-6-amine]
11 | < 10 µM | FC(F)Cn1ncc2ncc(N[C@H]3C[C@@H]4CN(c5cnc(C(F)(F)F)nc5)C[C@@H]4C3)nc21 [Compound 88, 1-(2,2-difluoroethyl)-N-((3aR,5s,6aS)-2-(2-(trifluoromethyl)pyrimidin-5-yl)octahydrocyclopenta[c]pyrrol-5-yl)-1H-pyrazolo[3,4-b]pyrazin-6-amine]
12 | < 10 µM | FC(F)Cn1ncc2ncc(N[C@H]3C[C@@H]4CN(c5cc(C(F)(F)F)ncn5)C[C@@H]4C3)nc21 [Compound 90, 1-(2,2-difluoroethyl)-N-((3aR,5s,6aS)-2-(6-(trifluoromethyl)pyrimidin-4-yl)octahydrocyclopenta[c]pyrrol-5-yl)-1H-pyrazolo[3,4-b]pyrazin-6-amine]
